Test results from US20260217701A1, “SELECTIVE BET INHIBITORS AND USES THEREOF” (Tay Therapeutics Limited, priority 2022, published 2026).
“And” between values parts separate entries of the source, which are not always exact repeats. Equal entries are not always repeated.

Tested on: collagen-induced arthritis
Experiment: Collagen-induced arthritis (CIA) model: clinical scores and paw volume
Format: in vivo, Lewis rats
Conditions: for Percent Inhibition in clinical score (Mean ± SD) / Percent Inhibition in paw volume (Mean ± SD): CIA rats; for Overall Clinical Score: individual animals 1-8
[1] = Day 0, L paw, group 5 CIA + Compound A 1 mg/kg
[2] = Day 0, L paw, group 6 CIA + Compound A 3 mg/kg
[3] = Day 0, L paw, group 7 CIA + Compound A 10 mg/kg
[4] = Day 0, R paw, group 5 CIA + Compound A 1 mg/kg
[5] = Day 0, R paw, group 6 CIA + Compound A 3 mg/kg
[6] = Day 0, R paw, group 7 CIA + Compound A 10 mg/kg
[7] = Day 0, CIA + Compound A 1 mg/kg
[8] = Day 0, CIA + Compound A 3 mg/kg
[9] = Day 0, CIA + Compound A 10 mg/kg
[10] = Day 6, L paw, group 5 CIA + Compound A 1 mg/kg
[11] = Day 6, L paw, group 6 CIA + Compound A 3 mg/kg
[12] = Day 6, L paw, group 7 CIA + Compound A 10 mg/kg
[13] = Day 6, R paw, group 5 CIA + Compound A 1 mg/kg
[14] = Day 6, R paw, group 6 CIA + Compound A 3 mg/kg
[15] = Day 6, R paw, group 7 CIA + Compound A 10 mg/kg
[16] = Day 6, CIA + Compound A 1 mg/kg
[17] = Day 6, CIA + Compound A 3 mg/kg
[18] = Day 6, CIA + Compound A 10 mg/kg
[19] = Day 12, L paw, group 5 CIA + Compound A 1 mg/kg
[20] = Day 12, L paw, group 6 CIA + Compound A 3 mg/kg
[21] = Day 12, L paw, group 7 CIA + Compound A 10 mg/kg
[22] = Day 12, R paw, group 5 CIA + Compound A 1 mg/kg
[23] = Day 12, R paw, group 6 CIA + Compound A 3 mg/kg
[24] = Day 12, R paw, group 7 CIA + Compound A 10 mg/kg
[25] = Day 12, CIA + Compound A 1 mg/kg
[26] = Day 12, CIA + Compound A 3 mg/kg

Cn1cc(-c2ccccc2)c(-c2cn(C)c(=O)c3[nH]c(-c4cnn(C(F)(F)F)c4)cc23)cc1=O [Compound A, 6-methyl-4-(1-methyl-2-oxo-5-phenyl-1,2-dihydropyridin-4-yl)-2-(1-(trifluoromethyl)-1H-pyrazol-4-yl)-1,6-dihydro-7H-pyrrolo[2,3-c]pyridin-7-one]
Reduction in clinical score compared to CIA+placebo (10 mg/kg PO QD, Day 21): > 70%
Reduction in paw volume compared to CIA+placebo (10 mg/kg PO QD, Day 21): > 70%
Anti-inflammatory activity versus CIA placebo and CIA+10 mg/kg GSK620 (1, 3, and 10 mg/kg): superior (statistically)
Percent Inhibition in clinical score (Mean ± SD) (1 mg/kg): 60 ± 21%
Percent Inhibition in paw volume (Mean ± SD) (1 mg/kg): 58 ± 23%
Percent Inhibition in clinical score (Mean ± SD) (3 mg/kg): 70 ± 8%
Percent Inhibition in paw volume (Mean ± SD) (3 mg/kg): 75 ± 12%
Average animal paw volume [1]: 1.33 mL
Average animal paw volume percent change (%) [1]: 0.00%
Average animal paw volume [2]: 1.32 mL
Average animal paw volume percent change (%) [2]: 0.00%
Average animal paw volume [3]: 1.32 mL
Average animal paw volume percent change (%) [3]: 0.00%
Average animal paw volume [4]: 1.33 mL
Average animal paw volume percent change (%) [4]: 0.00%
Average animal paw volume [5]: 1.31 mL
Average animal paw volume percent change (%) [5]: 0.00%
Average animal paw volume [6]: 1.31 mL
Average animal paw volume percent change (%) [6]: 0.00%
Average detailed clinical score, left forelimb [7]: 0.00
Average detailed clinical score, left hind limb [7]: 0.00
Average detailed clinical score, right forelimb [7]: 0.00
Average detailed clinical score, right hind limb [7]: 0.00
Average detailed clinical score, score [7]: 0.00
Average overall clinical score [7]: 0
Overall Clinical Score [7]: 0
Average detailed clinical score, left forelimb [8]: 0.00
Average detailed clinical score, left hind limb [8]: 0.00
Average detailed clinical score, right forelimb [8]: 0.00
Average detailed clinical score, right hind limb [8]: 0.00
Average detailed clinical score, score [8]: 0.00
Average overall clinical score [8]: 0
Overall Clinical Score [8]: 0
Average detailed clinical score, left forelimb [9]: 0.00
Average detailed clinical score, left hind limb [9]: 0.00
Average detailed clinical score, right forelimb [9]: 0.00
Average detailed clinical score, right hind limb [9]: 0.00
Average detailed clinical score, score [9]: 0.00
Average overall clinical score [9]: 0
Average animal paw volume [10]: 1.35 mL
Average animal paw volume percent change (%) [10]: 1.60%
Average animal paw volume [11]: 1.34 mL
Average animal paw volume percent change (%) [11]: 1.44%
Average animal paw volume [12]: 1.34 mL
Average animal paw volume percent change (%) [12]: 1.64%
Average animal paw volume [13]: 1.35 mL
Average animal paw volume percent change (%) [13]: 1.41%
Average animal paw volume [14]: 1.34 mL
Average animal paw volume percent change (%) [14]: 1.63%
Average animal paw volume [15]: 1.33 mL
Average animal paw volume percent change (%) [15]: 1.59%
Average detailed clinical score, left forelimb [16]: 0.00
Average detailed clinical score, left hind limb [16]: 0.00
Average detailed clinical score, right forelimb [16]: 0.00
Average detailed clinical score, right hind limb [16]: 0.00
Average detailed clinical score, score [16]: 0.00
Average overall clinical score [16]: 0
Overall Clinical Score [16]: 0
Average detailed clinical score, left forelimb [17]: 0.00
Average detailed clinical score, left hind limb [17]: 0.00
Average detailed clinical score, right forelimb [17]: 0.00
Average detailed clinical score, right hind limb [17]: 0.00
Average detailed clinical score, score [17]: 0.00
Average overall clinical score [17]: 0
Overall Clinical Score [17]: 0
Average detailed clinical score, left forelimb [18]: 0.00
Average detailed clinical score, left hind limb [18]: 0.00
Average detailed clinical score, right forelimb [18]: 0.00
Average detailed clinical score, right hind limb [18]: 0.00
Average detailed clinical score, score [18]: 0.00
Average overall clinical score [18]: 0
Average animal paw volume [19]: 1.38 mL
Average animal paw volume percent change (%) [19]: 4.24%
Average animal paw volume [20]: 1.37 mL
Average animal paw volume percent change (%) [20]: 4.35%
Average animal paw volume [21]: 1.36 mL
Average animal paw volume percent change (%) [21]: 3.32%
Average animal paw volume [22]: 1.42 mL
Average animal paw volume percent change (%) [22]: 6.44%
Average animal paw volume [23]: 1.36 mL
Average animal paw volume percent change (%) [23]: 3.50%
Average animal paw volume [24]: 1.37 mL
Average animal paw volume percent change (%) [24]: 4.40%
Average detailed clinical score, left forelimb [25]: 0.00
Average detailed clinical score, left hind limb [25]: 0.13
Average detailed clinical score, right forelimb [25]: 0.25
Average detailed clinical score, right hind limb [25]: 0.00
Average detailed clinical score, score [25]: 0.38
Average overall clinical score [25]: 0
Overall Clinical Score (Day 12, CIA + Compound A 1 mg/kg, 1 mg/kg): 0 (7×) and 1
Average detailed clinical score, left forelimb [26]: 0.00
Average detailed clinical score, left hind limb [26]: 0.25
Average detailed clinical score, right forelimb [26]: 0.00
Average detailed clinical score, right hind limb [26]: 0.25
Average detailed clinical score, score [26]: 0.50
Average overall clinical score [26]: 0
Overall Clinical Score (Day 12, CIA + Compound A 3 mg/kg, 3 mg/kg): 0
